Results on 20 compounds are retold here after US11459339B2, “Biaryl derivative, preparation method thereof and pharmaceutical application thereof” (Abbisko Therapeutics Co., Ltd., priority 2018, dated 2022).

Bounds are passed on as bounds.

For assay [1], the target named is interaction between PD-1 and PD-L1 expressed on cell surfaces (Homo sapiens (Human), UniProt Q9NZQ7). In words: Jurkat reporter gene cellular assay (Jurkat/NF-κB-luc/PD1 cells cocultured with Raji-PD-L1 cells, OKT-3 stimulation). In kind it is cell-based. The following applies: NF-κB-luc reporter activation fold, 6 hrs; read-out: Cell Activity EC50. Here is the method: B. Jurkat Reporter Gene Cellular Assay
The effect of compounds of the examples of the present invention and positive compounds on the interaction between PD-1 and PD-L1 expressed on cell surfaces, and the related influence on T cell functions, were determined by a Jurkat reporter gene cellular assay.
Briefly, the reporter gene plasmid of NF-κB-luc and the plasmid of human PD-1 were transfected into Jurkat cells to establish a stably transfected cell line capable of stably expressing both PD-1 and NF-κB-Luc reporter genes; the expression level of PD-1 on the cell surface was confirmed by flow cytometry: and the expression of the reporter gene was confirmed via the response of the reporter gene stimulated by OKT-3 and Raiji cells.
In addition, the plasmid of human PD-L1 was transfected into Raji cells to obtain a cell line capable of stably expressing PD-L1. Jurkat/NF-κB-luc/PD1 cells and Raji-PD-L1 cells were then cocultured and stimulated with OKT-3. On this basis, the compounds were added, and the enhancement of the signal pathway of T cell activation by the inhibitory effect of the compounds on the interaction between PD-1 and PD-L1 was evaluated by readings of reporter gene responses. The specific experimental process was as follows:
2. 20 μL of Raji-PD-L1 cell suspension was added to each well with 5*10^4 cells for each well, and was incubated in an incubator for 20 min;
3. 20 μL of Jurkat/NF-κb-luc/PD-1 cell suspension was added to each well with 5*10^4 cells for each well, and well mixed, and 6 hrs later, Bright-glo (Promega, E2620) was applied and plates were read on Envision;
4. the reading of each well treated with the compound was compared with the reading of each well treated with DMSO to obtain the activation fold of the compound; and
5. EC50 values of compounds and positive compounds of the examples of the present invention were determined by non-linear regression analysis of activation folds at different compound concentrations.
On the technique in general: Reporter assays use an easily measured gene product as a stand-in for the process of interest.

Assay [2] concerns the target interaction between PD-1 and PD-L1 (Homo sapiens (Human), UniProt Q9NZQ7). In words: PD1-PDL1 HTRF binding activity test (Cisbio PD-1/PD-L1 binding assay kit). Particulars: read-out: PD1-PDL1 HTRF Binding Activity IC50. Here is the method: A. PD1-PDL1 HTRF Binding Activity Test
The effect of compounds and positive compounds of the examples of the present invention on the interaction between PD-1 and PD-L1 was determined by the PD-1/PD-L1 binding assay kit from Cisbio (#64ICP01PEG or 64ICP01PEH). The detailed experimental process was as follows:
1. Pre-diluted compound solution, 4 μL of Tag1-PD-L1 and 4 μL of Tag2-PD1 were added to each well of a 384-well plate;
3. After incubated for 2 hrs at room temperature or overnight at 4° C., plates were read on Envision of Pelkin Elmer; and readings at 665 nm and 620 nm were recorded, and the ratio of the two readings was taken as a reading for each well;
4. The reading of each well after compound treatment was compared with the reading of DMSO treated wells to obtain the percent inhibition of the compound; and
5. IC50 values of compounds and positive compounds of the examples of the present invention were determined by non-linear regression analysis of percent inhibition at different compound concentrations.
Background: In TR-FRET formats the signal depends on donor and acceptor labels being close together.

interaction between PD-1 and PD-L1 expressed on cell surfaces, sequence (Q9NZQ7 19-290): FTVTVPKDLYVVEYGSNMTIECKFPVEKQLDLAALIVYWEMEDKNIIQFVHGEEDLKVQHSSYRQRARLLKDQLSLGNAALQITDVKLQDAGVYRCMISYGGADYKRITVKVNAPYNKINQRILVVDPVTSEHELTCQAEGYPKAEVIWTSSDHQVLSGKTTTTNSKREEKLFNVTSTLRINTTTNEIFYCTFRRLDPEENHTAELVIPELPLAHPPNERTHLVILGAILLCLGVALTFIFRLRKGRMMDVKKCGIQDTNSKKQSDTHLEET
interaction between PD-1 and PD-L1, sequence (Q9NZQ7 19-238): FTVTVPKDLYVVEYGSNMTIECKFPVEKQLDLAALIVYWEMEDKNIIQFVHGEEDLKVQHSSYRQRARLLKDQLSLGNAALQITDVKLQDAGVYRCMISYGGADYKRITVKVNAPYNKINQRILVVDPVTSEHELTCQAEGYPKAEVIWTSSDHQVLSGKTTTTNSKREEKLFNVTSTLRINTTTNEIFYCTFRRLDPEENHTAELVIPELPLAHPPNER

In general, EC50 refers to the midpoint of the concentration-response curve. In general, IC50 refers to the midpoint of a concentration-inhibition curve. On to `COC(=O)CNCc1cnc(C(=O)Nc2cccc(-c3cccc(NC(=O)c4cc(C)c(CNCC(=O)OC)cn4)c3C)c2C)cc1C` [Example 24, dimethyl 2,2′-((((((2,2′-dimethyl-[1,1′-biphenyl]-3,3′-diyl)bis(azanediyl))bis(carbonyl))bis(4-methylpyridine-6,3-diyl))bis (methylene))bis(azanediyl))diacetate], for which the EC50 in assay [1] was found to be 1050 nM. Besides, in assay [2], the IC50 was determined as 3.2 nM.
As for `Cc1cc(C(=O)Nc2cccc(-c3cccc(NC(=O)c4cc(C)c(CNCC(=O)O)cn4)c3C)c2C)ncc1CNCC(=O)O` [Example 25], the EC50 in assay [1] amounted to 124 nM. The IC50 in assay [2] is 0.37 nM.
The corresponding values for `COC(=O)[C@H]1CCCCN1Cc1cnc(C(=O)Nc2cccc(-c3cccc(NC(=O)c4cc(C)c(CN5CCCC[C@@H]5C(=O)OC)cn4)c3C)c2C)cc1C` [Example 28, dimethyl 1,1′-(((((2,2′-dimethyl-[1,1′-biphenyl]-3,3′-diyl)bis (azanediyl))bis(carbonyl))bis (4-methylpyridine-6,3-diyl))bis(methylene))(2R,2′R)-bis (piperidine-2-carboxylate)] are more than 10000 nM and 9.55 nM.
The corresponding values for `Cc1cc(C(=O)Nc2cccc(-c3cccc(NC(=O)c4cc(C)c(CN5CCCC[C@@H]5C(=O)O)cn4)c3C)c2C)ncc1CN1CCCC[C@@H]1C(=O)O` [Example 29, (2R,2′R)-1,1′-(((((2,2′-dimethyl-[1,1′-biphenyl]-3,3′-diyl)bis (azanediyl))bis(carbonyl))bis (4-methylpyridine-6,3-diyl))bis(methylene))bis(piperidine-2-carboxylic acid)] are 1460 nM and 0.36 nM.
`Cc1cc(C(=O)Nc2cccc(-c3cccc(NC(=O)c4cc(C)c(CN[C@H](CCO)C(=O)O)cn4)c3C)c2C)ncc1CN[C@H](CCO)C(=O)O` [Example 30, (2R,2′R)-2,2′-((((((2,2′-dimethyl-[1,1′-biphenyl]-3,3′-diyl)bis(azanediyl))bis(carbonyl))bis(4-methylpyridine-6,3-diyl))bis(methylene))bis(azanediyl)) bis(4-hydroxybutanoic acid)]: the EC50 in assay [1] came to 448 nM. Also, the IC50 in assay [2] was found to be 1.24 nM.
For `COc1cc(C(=O)Nc2cccc(-c3cccc(NC(=O)c4cc(OC)c(CN5CCOCC5)cn4)c3C)c2C)ncc1CN1CCOCC1` [Example 31, N,N′-(2,2′-dimethyl-[1,1′-biphenyl]-3,3′-diyl)bis(4-methoxy-5-(morpholinomethyl)picolinamide)], in assay [1], the EC50 was determined as 2080 nM. Besides, the IC50 in assay [2] worked out at 1 nM.
The matching figures for `CNCc1cnc(C(=O)Nc2cccc(-c3cccc(NC(=O)c4cc(OC)c(CNC)cn4)c3C)c2C)cc1OC` [Example 32, N,N'-(2,2′-dimethyl-[1,1′-biphenyl]-3,3′-diyl)bis(4-methoxy-5-((methylamino)methyl)picolinamide)]: 53 nM and 0.27 nM.
As for `COc1cc(C(=O)Nc2cccc(-c3cccc(NC(=O)c4cc(OC)c(CNC[C@H](O)CO)cn4)c3C)c2C)ncc1CNC[C@H](O)CO` [Example 33, N,N'-(2,2′-dimethyl-[1,1′-biphenyl]-3,3′-diyl)(5((((S)-2,3-dihydroxypropyl)amino)methyl)-4-methoxypicolinamide)], the EC50 in assay [1] was 109 nM. In assay [2], the IC50 is 0.65 nM.
The corresponding values for `COCCNCc1cnc(C(=O)Nc2cccc(-c3cccc(NC(=O)c4cc(OC)c(CNCCOC)cn4)c3C)c2C)cc1OC` [Example 34, N,N'-(2,2′-dimethyl-[1,1′-biphenyl]-3,3′-diyl)bis(4-methoxy-5-(((2-methoxyethyl)amino)methyl)picolinamide)] are 111 nM and 0.21 nM.
The matching figures for `COc1cc(C(=O)Nc2cccc(-c3cccc(NC(=O)c4cc(OC)c(CNCCOC(F)F)cn4)c3C)c2C)ncc1CNCCOC(F)F` [Example 35, N,N'-(2,2′-dimethyl-[1,1′-biphenyl]-3,3′-diyl)bis(5-(((2-(difluoromethoxy)ethyl)amino)methyl)-4-methoxypicolinamide)]: 257 nM and 1.11 nM.
As to `COCCN(C)Cc1cnc(C(=O)Nc2cccc(-c3cccc(NC(=O)c4cc(OC)c(CN(C)CCOC)cn4)c3C)c2C)cc1OC` [Example 36, N,N'-(2,2′-dimethyl-[1,1′-biphenyl]-3,3′-diyl)bis(4-methoxy-5-(((2-methoxyethyl)(methyl)amino)methyl)picolinamide)], the EC50 in assay [1] was found to be 456 nM. Also, the IC50 in assay [2] was 0.74 nM.
For `COc1cc(C(=O)Nc2cccc(-c3cccc(NC(=O)c4cc(OC)c(CN(C)CCO)cn4)c3C)c2C)ncc1CN(C)CCO` [Example 37, N,N'-(2,2′-dimethyl-[1,1′-biphenyl]-3,3′-diyl)bis(5-(((2-hydroxyethyl) (methyl)amino)methyl)-4-methoxypicolinamide)], the EC50 in assay [1] stood at 118 nM. For the same compound, the IC50 in assay [2] came out at 0.04 nM.
Turning to `COc1cc(C(=O)Nc2cccc(-c3cccc(NC(=O)c4cc(OC)c(CNCCOC(C)=O)cn4)c3C)c2C)ncc1CNCCOC(C)=O` [Example 38, ((((((2,2′-dimethyl-[1,1′-biphenyl]-3,3′-diyl)bis(azanediyl))bis (carbonyl))bis(4-methoxypyridine-6,3-diyl))bis(methylene))bis (azanediyl))bis(ethane-2,1-diyl) diacetate], the EC50 in assay [1] came to 7000 nM. Moreover, in assay [2], the IC50 stood at 0.83 nM.
The corresponding values for `COc1cc(C(=O)Nc2cccc(-c3cccc(NC(=O)c4cc(OC)c(CNCCNC(C)=O)cn4)c3C)c2C)ncc1CNCCNC(C)=O` [Example 39, N,N′-(2,2′-dimethyl-[1,1′-biphenyl]-3,3′-diyl)bis(5-(((2-acetamidoethyl)amino)methyl)-4-methoxypicolinamide)] are 225 nM and 0.86 nM.
As for `COc1cc(C(=O)Nc2cccc(-c3cccc(NC(=O)c4cc(OC)c(CNCC(C)(C)O)cn4)c3C)c2C)ncc1CNCC(C)(C)O` [Example 40, N,N'-(2,2′-dimethyl-[1,1′-biphenyl]-3,3′-diyl)bis(5-(((2-hydroxy-2-methylpropyl)amino)methyl)-4-methoxypicolinamide)], the concentration giving a half-maximal response (EC50) in assay [1] stood at 172 nM. The IC50 in assay [2] is 0.29 nM.
For `COc1cc(C(=O)Nc2cccc(-c3cccc(NC(=O)c4cc(OC)c(CNCC5(O)CC5)cn4)c3C)c2C)ncc1CNCC1(O)CC1` [Example 41, N,N'-(2,2′-dimethyl-[1,1′-biphenyl]-3,3′-diyl)bis(5-((((1-hydroxycyclopropyl)methyl)amino)methyl)-4-methoxypicolinamide)], in assay [1], the EC50 amounted to 74 nM. In assay [2], the IC50 amounted to 0.032 nM.
The matching figures for `COc1cc(C(=O)Nc2cccc(-c3cccc(NC(=O)c4cc(OC)c(CN[C@H](C)CO)cn4)c3C)c2C)ncc1CN[C@H](C)CO` [Example 42, N,N'-(2,2′-dimethyl-[1,1′-biphenyl]-3,3′-diyl)bis(5-((((R)-1-hydroxypropan-2-yl)amino)methyl)-4-methoxypicolinamide)]: 60 nM and 0.28 nM.
Turning to `COc1cc(C(=O)Nc2cccc(-c3cccc(NC(=O)c4cc(OC)c(CN[C@@H](C)CO)cn4)c3C)c2C)ncc1CN[C@@H](C)CO` [Example 43, N,N'-(2,2′-dimethyl-[1,1′-biphenyl]-3,3′-diyl)bis(5-((((S)-1-hydroxypropan-2-yl)amino)methyl)-4-methoxypicolinamide)], the EC50 in assay [1] was 11 nM. Besides, in assay [2], the IC50 was 0.29 nM.
Consider `COc1cc(C(=O)Nc2cccc(-c3cccc(NC(=O)c4cc(OC)c(CN[C@H]5CCC[C@@H]5O)cn4)c3C)c2C)ncc1CN[C@H]1CCC[C@@H]1O` [Example 44, N,N'-(2,2′-dimethyl-[1,1′-biphenyl]-3,3′-diyl)bis(5-((((1S,2S)-2-hydroxycyclopentyl)amino)methyl)-4-methoxypicolinamide)], for which, in assay [1], the EC50 was found to be 55 nM. Moreover, the IC50 in assay [2] turned out to be 0.24 nM.
With `COc1cc(C(=O)Nc2cccc(-c3cccc(NC(=O)c4cc(OC)c(CN5CC(O)C5)cn4)c3C)c2C)ncc1CN1CC(O)C1` [Example 45, N,N'-(2,2′-dimethyl-[1,1′-biphenyl]-3,3′-diyl)bis(5-((3-hydroxyazetidin-l-yl)methyl)-4-methoxypicolinamide)], in assay [1], the EC50 stood at 41 nM. In assay [2], the IC50 was determined as 0.22 nM.
